In assay [1] the test system is Pythium irregulare (ATCC 10951). Put plainly: Growth and EPA production of P. irregulare with glucose, pure glycerol or crude glycerol as carbon source. The assay is classed as cell-based. The conditions noted are these: FIG. 1A; substrate around 20 g/L.
The subject of the next assay is P. irregulare. Put plainly: Effects of methanol on fungal growth. The assay is classed as cell-based, Pythium irregulare. The conditions noted are these: 20 g/L pure glycerol spiked with 2, 4, and 8 g/L methanol; filter-sterilised; spores inoculated. From the text: The crude glycerol used in this work contained ˜12% (w/w) methanol. […] To study the “true” effects of methanol on fungal growth and EPA production, we prepared a medium containing 20 g/L pure glycerol spiked with 2, 4, and 8 g/L methanol. The medium was then passed through a 0.2 μm filter before fungal spores were inoculated. […] The result clearly indicated the negative effects of methanol on growth and EPA production of P. irregulare.

Consider `OCC(O)CO` [Pure glycerol, glycerol], for which, in assay [1], the cell growth result was “supported cell growth”.

Take `CO` [methanol]: in the assay on P. irregulare, the “growth in methanol-containing medium” value is on record as “did not observe any growth”.

The record behind these values is US8541210B2, “Producing eicosapentaenoic acid (EPA) from biodiesel-derived crude glycerol” (Virginia Tech Intellectual Properties, Inc., priority 2008, dated 2013).
